Measurements taken from patent US6498125B2, “Pyridine ketones useful as herbicides” (Syngenta Participations AG, priority 1998, dated 2002).

What was measured:
[1] = system: Monocotyledonous and dicotyledonous test plants; assay: Example B2: post-emergence herbicidal action, 2 kg of AS/ha; type: in vivo; design: key: 1 = complete damage, 9 = no effect; settings: 4- to 6-leaf stage, about 18 days; for post-emergence action rating, Avena: test plant Avena; for post-emergence action rating, Setaria: test plant Setaria; for post-emergence action rating, Sinapis: test plant Sinapis; for post-emergence action rating, Solanum: test plant Solanum; for post-emergence action rating, Stellaria: test plant Stellaria
Method: Monocotyledonous and dicotyledonous test plants are grown in plastic pots with standard soil in a greenhouse and, in the 4- to 6-leaf stage, are sprayed with an aqueous suspension of the test substances of the formula 1, prepared from a 25% wettable powder (Example F3, b) according to WO 97134485) or with an emulsion of the test substances of the formula I, prepared from a 25% emulsion concentrate (Example F1, c) according to WO 97/34485), corresponding to a dosage of 2 kg of AS/ha (500 l of water/ha). The test plants are then grown further under optimum conditions in a greenhouse. After a test period of about 18 days, the test is evaluated with a nine-level scale of rating (1=complete damage, 9=no effect). Ratings of 1 to 4 (in particular 1 to 3) mean good to very good herbicidal action. In this test, the compounds of the formula I show strong herbicidal action.

[2] = system: Monocotyledonous and dicotyledonous test plants; assay: Example B1: pre-emergence herbicidal action, 2 kg of AS/ha; type: in vivo; settings: 3 weeks, scale 1-9; for pre-emergence action rating, Avena: test plant Avena; for pre-emergence action rating, Cyperus: test plant Cyperus; for pre-emergence action rating, Setaria: test plant Setaria; for pre-emergence action rating, Sinapis: test plant Sinapis; for pre-emergence action rating, Solanum: test plant Solanum; for pre-emergence action rating, Stellaria: test plant Stellaria
Method: Monocotyledonous and dicotyledonous test plants are sown in standard soil in plastic pots. Immediately after sowing, the test substances are sprayed on (500 l of water/ha) as an aqueous suspension (prepared from a 25% wettable powder (Example F3, b) according to WO 97/34485) or emulsion (prepared from a 25% emulsion concentrate (Example F1, c)), corresponding to a dosage of 2 kg of AS/ha. The test plants are then grown under optimum conditions in a greenhouse. After a test period of 3 weeks, the test is evaluated with a nine-level scale of ratings (1=complete damage, 9=no effect). Ratings of 1 to 4 (in particular 1 to 3) mean good to very good herbicidal action.

Row | Structure (SMILES) | post-emergence action rating, Avena ([1]; scale 1-9) | post-emergence action rating, Setaria ([1]; scale 1-9) | post-emergence action rating, Sinapis ([1]; scale 1-9) | post-emergence action rating, Solanum ([1]; scale 1-9) | post-emergence action rating, Stellaria ([1]; scale 1-9) | pre-emergence action rating, Avena [2] | pre-emergence action rating, Cyperus [2] | pre-emergence action rating, Setaria [2] | pre-emergence action rating, Sinapis [2] | pre-emergence action rating, Solanum [2] | pre-emergence action rating, Stellaria [2] | post-emergence action rating, Avena ([1]; scale 1-9, listed as 1.010) | post-emergence action rating, Stellaria ([1]; scale 1-9, listed as 1.010)
1 | O=C(C1=C(O)C2CCC(C2)C1=O)c1ccc(C(F)(F)F)nc1 (stereo not shown) [Compound 1.001] | 3 | 2 | 1 | 2 | 2 |  |  |  |  |  |  |  | 
2 | O=C(C1=C(O)C2CCC(C2)C1=O)c1ccc(C(F)(F)F)nc1 (stereo not shown) [Compound 1.01] |  | 2 | 1 | 2 |  | 2 | 1 | 1 | 1 | 1 | 2 | 2 | 4
3 | Cc1nc(C(F)(F)F)ccc1C(=O)C1=C(OC(=O)C(C)(C)C)C2CCC(C2)C1=O (stereo not shown) [Compound 1.4] | 2 | 2 | 1 | 2 | 2 | 2 | 1 | 1 | 2 | 1 | 2 |  | 
4 | O=C(C1=C(O)C2CCC(C2)C1=O)c1ccc(C(F)(F)F)nc1C(F)F (stereo not shown) [Compound 1.005] | 2 | 2 | 1 | 2 | 2 | 4 | 1 | 1 | 1 | 1 | 1 |  | 
5 | Cc1c(C(=O)C2=C(O)C3CCC(C3)C2=O)ccc(C(F)(F)F)[n+]1[O-] (stereo not shown) [Compound 1.06] | 2 | 1 | 1 | 1 | 2 | 2 | 1 | 1 | 2 | 1 | 1 |  | 
6 | O=C(C1=C(O)C2CCC(C2)C1=O)c1ccc(C(F)(F)F)nc1C(F)(F)F (stereo not shown) [Compound 1.008] | 2 | 2 | 1 | 2 | 2 |  |  |  |  |  |  |  | 
7 | Cc1nc(C(F)(F)F)ccc1C(=O)C1=C(O)C2CCC(C2)C1=O (stereo not shown) [Compound 1.009, 4-hydroxy-3-(2-methyl-6-trifluoromethylpyridine-3-carbonyl)bicyclo[3.2.1]oct-3-en-2-one] | 1 | 1 | 1 | 1 | 2 | 2 | 1 | 1 | 2 | 1 | 2 |  | 
8 | CC(C)c1nc(C(F)(F)F)ccc1C(=O)C1=C(O)C2CCC(C2)C1=O (stereo not shown) [Compound 1.011] | 2 | 2 | 2 | 2 | 2 | 2 | 1 | 1 | 1 | 1 | 1 |  | 
9 | CCCc1nc(C(F)(F)F)ccc1C(=O)C1=C(O)C2CCC(C2)C1=O (stereo not shown) [Compound 1.012] | 3 | 2 | 1 | 2 | 2 |  |  |  |  |  |  |  | 
10 | COCc1nc(C(F)(F)F)ccc1C(=O)C1=C(O)C2CCC(C2)C1=O (stereo not shown) [Compound 1.021] | 2 | 4 | 1 | 2 | 2 | 4 | 2 | 1 | 1 | 1 | 3 |  | 
11 | COCCc1nc(C(F)(F)F)ccc1C(=O)C1=C(O)C2CCC(C2)C1=O (stereo not shown) [Compound 1.023] | 2 | 2 | 1 | 2 | 2 | 2 | 2 | 2 | 1 | 1 | 2 |  | 
12 | CS(=O)(=O)Cc1nc(C(F)(F)F)ccc1C(=O)C1=C(O)C2CCC(C2)C1=O (stereo not shown) [Compound 1.026] | 3 | 1 | 1 | 1 | 2 |  |  |  |  |  |  |  | 
13 | C#CCOc1nc(C(F)(F)F)ccc1C(=O)C1=C(O)C2CCC(C2)C1=O (stereo not shown) [Compound 1.048] | 2 | 1 | 1 | 1 | 2 |  |  |  |  |  |  |  | 
14 | Cc1cc(C(F)(F)F)ncc1C(=O)C1=C(O)C2CCC(C2)C1=O (stereo not shown) [Compound 1.362] | 3 | 2 | 1 | 2 | 2 |  |  |  |  |  |  |  | 
15 | CCc1nc(C(F)(F)F)ccc1C(=O)C1=C(O)C(C)(C)ON(C)C1=O [Compound 4.01] | 3 | 3 | 2 | 2 | 2 |  |  |  |  |  |  |  | 
16 | CCC1=CC(C)(C)C(O)=C(C(=O)c2ccc(C(F)(F)F)nc2C)C1=O [Compound 5.081] | 3 | 2 | 1 | 1 | 2 |  |  |  |  |  |  |  | 
17 | Cc1nc(C(F)(F)F)ccc1C(=O)C1=C(O)C(C)(C)C=CC1=O [Compound 5.085] | 3 | 2 | 1 | 2 | 2 |  |  |  |  |  |  |  | 
